Counter-ions that a name gives are not always drawn.
Key:
human mPGES-1 = human mPGES-1 (Homo sapiens (Human), UniProt O14684); experiment: mPGES-1 inhibiting activity (microsome fractions, PGE2 by HTRF); type: biochemical; conditions: microsomes from CHO-K1 cells transfected with human mPGES-1; PGH2 1 μM, 4° C., 60 seconds; read-out: mPGES-1 Inhibition IC50
In short: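 PGE2 formation read by HTRF after 60 s at 4 °C with 1 μM PGH2 substrate, following 20 min compound preincubation (1% DMSO) with human mPGES-1 microsomes from transfected CHO-K1 cells. Buffer: potassium phosphate, reduced glutathione, pH 7.4; IC50 from activity relative to enzyme-free blank.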

A549 cells = experiment: Inhibition of PGE2 production in A549 cell (IL-1β stimulated); type: cell-based, human; conditions: IL-1β 5 ng/well, PGE2 in culture medium
In short: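 After IL-1β (5 ng/well) stimulation for 24 h at 37 °C, following a 60-min compound pretreatment in RPMI with 3% FBS, medium PGE2 (HTRF) and PGF2α (EIA) from human A549 cells were quantified. 100% activity set as IL-1β-induced minus basal production; IC50 calculated.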

human mPGES-1, sequence (O14684 whole entry): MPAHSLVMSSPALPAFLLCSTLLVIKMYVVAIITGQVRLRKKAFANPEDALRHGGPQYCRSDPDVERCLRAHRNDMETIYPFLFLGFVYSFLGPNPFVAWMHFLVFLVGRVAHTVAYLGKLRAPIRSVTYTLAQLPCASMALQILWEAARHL

Row | IC50 (human mPGES-1) [nM] | IC50 (A549 cells; Homo sapiens, A549, 24 h) [nM] | IC50 (A549 cells; 24 hours, hydrochloride) [nM] | Compound
1 | 179 | 280 | – | Cc1nc2c(C(=O)NCc3ccccc3C(F)(F)F)cc(NC(=O)c3ccccc3C(F)(F)F)cc2o1 [Example 53, 2-Methyl-N-[2-(trifluoromethyl)benzyl]-6-({[2-(trifluoromethyl)phenyl]carbonyl}amino)-1,3-benzoxazole-4-carboxamide]
2 | 23.2 | 225 | – | CCc1nc2c(C(=O)Nc3cccc(Cl)c3C)cc(NC(=O)c3ccccc3C(F)(F)F)cc2o1 [Example 54, N-(3-Chloro-2-methylphenyl)-2-ethyl-6-({[2-(trifluoromethyl)phenyl]carbonyl}amino)-1,3-benzoxazole-4-carboxamide]
3 | 2.7 | 64.3 | – | CCOc1nc2c(C(=O)Nc3cccc(Cl)c3C)cc(NC(=O)c3ccccc3C(F)(F)F)cc2[nH]1 [Example 55, N-(3-Chloro-2-methylphenyl)-2-ethoxy-6-({[2-(trifluoromethyl)phenyl]carbonyl}amino)-1H-benzimidazole-4-carboxamide]
4 | 7.5 | 85 | – | CCOc1nc2c(C(=O)NCc3ccccc3C(F)(F)F)cc(NC(=O)c3ccccc3C(F)(F)F)cc2[nH]1 [Example 56, 2-Ethoxy-N-[2-(trifluoromethyl)benzyl]-6-({[2-(trifluoromethyl)phenyl]carbonyl}amino)-1H-benzimidazole-4-carboxamide]
5 | 0.5 | 16.8 | – | Cc1c(Cl)cccc1NC(=O)c1cc(NC(=O)c2ccccc2C(F)(F)F)cc2[nH]c(C(C)(C)CCl)nc12 [Example 57, N-(3-Chloro-2-methylphenyl)-2-(1-chloro-2-methylpropan-2-yl)-6-({[2-(trifluoromethyl)phenyl]carbonyl}amino)-1H-benzimidazole-4-carboxamide]
6 | 5.4 | 157 | – | Cc1c(Cl)cccc1NC(=O)c1cc(NC(=O)c2ccccc2C(F)(F)F)cc2[nH]c(CN(C)C)nc12 [Example 58, N-(3-Chloro-2-methylphenyl)-2-[(dimethylamino)methyl]-6-({[2-(trifluoromethyl)phenyl]carbonyl}amino)-1H-benzimidazole-4-carboxamide hydrochloride]
7 | 2.1 | 12.9 | – | Cc1c(Cl)cccc1NC(=O)c1cc(NC(=O)c2ccccc2C(F)(F)F)cc2[nH]c(CC(C)C)nc12 [Example 59, N-(3-Chloro-2-methylphenyl)-2-(2-methylpropyl)-6-({[2-(trifluoromethyl)phenyl]carbonyl}amino)-1H-benzimidazole-4-carboxamide hydrochloride]
8 | 19.8 | 8 | – | CC(C)Cc1nc2c(C(=O)NCc3ccccc3C(F)(F)F)cc(NC(=O)c3ccccc3C(F)(F)F)cc2[nH]1 [Example 60, 2-(2-Methylpropyl)-N-[2-(trifluoromethyl)benzyl]-6-({[2-(trifluoromethyl)phenyl]carbonyl}amino)-1H-benzimidazole-4-carboxamide hydrochloride]
9 | 3.2 | 66.7 | – | Cc1c(Cl)cccc1NC(=O)c1cc(NC(=O)c2ccccc2C(F)(F)F)cc2[nH]c(C3CN(C(=O)OC(C)(C)C)C3)nc12 [Example 61, tert-Butyl 3-{4-[(3-chloro-2-methylphenyl)carbamoyl]-6-({[2-(trifluoromethyl)phenyl]carbonyl}amino)-1H-benzimidazol-2-yl}azetidine-1-carboxylate]
10 | 11 | 51.6 | – | CNCc1nc2c(C(=O)Nc3cccc(Cl)c3C)cc(NC(=O)c3ccccc3C(F)(F)F)cc2[nH]1 [Example 62, N-(3-Chloro-2-methylphenyl)-2-[(methylamino)methyl]-6-({[2-(trifluoromethyl)phenyl]carbonyl}amino)-1H-benzimidazole-4-carboxamide dihydrochloride]
11 | 5.6 | 54.8 | – | CC(=O)OCc1nc2c(C(=O)Nc3cccc(Cl)c3C)cc(NC(=O)c3ccccc3C(F)(F)F)cc2[nH]1 [Example 63, {4-[(3-Chloro-2-methylphenyl)carbamoyl]-6-({[2-(trifluoromethyl)phenyl]carbonyl}amino)-1H-benzimidazol-2-yl}methyl acetate]
12 | 2.3 | – | 20.1 | Cc1c(Cl)cccc1NC(=O)c1cc(NC(=O)c2ccccc2C(F)(F)F)cc2[nH]c([C@H]3CCCO3)nc12 [Example 64, N-(3-Chloro-2-methylphenyl)-2-[(2R)-tetrahydrofuran-2-yl]-6-({[2-(trifluoromethyl)phenyl]carbonyl}amino)-1H-benzimidazole-4-carboxamide hydrochloride]
13 | 9.6 | 72.2 | – | O=C(Nc1cc(C(=O)NCc2ccccc2C(F)(F)F)c2nc([C@H]3CCCO3)[nH]c2c1)c1ccccc1C(F)(F)F [Example 65, 2-[(2R)-Tetrahydrofuran-2-yl]-N-[2-(trifluoromethyl)benzyl]-6-({[2-(trifluoromethyl)phenyl]carbonyl}amino)-1H-benzimidazole-4-carboxamide]
14 | 63.4 | > 10000 | – | CC(=O)N1CC(c2nc3c(C(=O)Nc4cccc(Cl)c4C)cc(NC(=O)c4ccccc4C(F)(F)F)cc3[nH]2)C1 [Example 68, 2-(1-Acetylazetidin-3-yl)-N-(3-chloro-2-methylphenyl)-6-({[2-(trifluoromethyl)phenyl]carbonyl}amino)-1H-benzimidazole-4-carboxamide hydrochloride]
15 | 10 | 21.6 | – | Cc1c(Cl)cccc1NC(=O)c1cc(NC(=O)c2ccccc2C(F)(F)F)cc2[nH]c([C@@H]3CCCN3C(=O)OC(C)(C)C)nc12 [Example 69, tert-Butyl (2S)-2-{4-[(3-chloro-2-methylphenyl)carbamoyl]-6-({[2-(trifluoromethyl)phenyl]carbonyl}amino)-1H-benzimidazol-2-yl}pyrrolidine 1-carboxylate]
16 | 4.6 | 147 | – | Cc1c(Cl)cccc1NC(=O)c1cc(NC(=O)c2ccccc2C(F)(F)F)cc2[nH]c([C@H]3CCCN3C(=O)OC(C)(C)C)nc12 [Example 70, tert-Butyl (2R)-2-{4-[(3-chloro-2-methylphenyl)carbamoyl]-6-({[2-(trifluoromethyl)phenyl]carbonyl}amino)-1H-benzimidazol-2-yl}pyrrolidine-1-carboxylate]
17 | 33.1 | 227 | – | Cc1c(Cl)cccc1NC(=O)c1cc(NC(=O)c2ccccc2C(F)(F)F)cc2[nH]c([C@@H]3CCCN3)nc12 [Example 71, N-(3-Chloro-2-methylphenyl)-2-[(2S)-pyrrolidin-2-yl]-6-({[2-(trifluoromethyl)phenyl]carbonyl}amino)-1H-benzimidazole-4-carboxamide dihydrochloride]
18 | 9.8 | 60 | – | Cc1c(Cl)cccc1NC(=O)c1cc(NC(=O)c2ccccc2C(F)(F)F)cc2[nH]c([C@@H]3CCCN3C)nc12 [Example 72, N-(3-Chloro-2-methylphenyl)-2-[(2S)-1-methylpyrrolidin-2-yl]-6-({[2-(trifluoromethyl)phenyl]carbonyl}amino)-1H-benzimidazole-4-carboxamide]
19 | 18.6 | 76.4 | – | CC(=O)N1CCC[C@H]1c1nc2c(C(=O)Nc3cccc(Cl)c3C)cc(NC(=O)c3ccccc3C(F)(F)F)cc2[nH]1 [Example 73, 2-[(2S)-1-Acetylpyrrolidin-2-yl]-N-(3-chloro-2-methylphenyl)-6-({[2-(trifluoromethyl)phenyl]carbonyl}amino)-1H-benzimidazole-4-carboxamide]

Source: patent US9216968B2, “Heterocyclic derivative and pharmaceutical drug” (NIPPON SHINYAKU CO., LTD., priority 2011, dated 2015)
